Reference: EP4702986A1, “POLYPEPTIDE AND USE THEREOF” (Biocells (Beijing) Biotech Co., Ltd., priority 2023, dated 2024)
Entries after “also recorded” stand apart in the source; their conditions may differ. Numbered stars: 1 amine (or outer) side, 2 acyl side, 3 side chain; on linkers, the order of the positions; unused ones are H or OH. Bridge positions count the residues as written; N and C are the ends. Side chains are listed from the residue outwards. Peptide text beside a SMILES is read from it. * marks the point of attachment. γGlu = O=C(O)[C@H](CCC(=O)[*:2])N[*:1]; Fumaroyl = O=C(O)/C=C/C(=O)*; Lauroyl = CCCCCCCCCCCC(=O)*; AEEA = NCCOCCOCC(=O)O

Key:
human ETB receptor = target: T1, human ETB receptor (Homo sapiens, UniProt P24530); experiment: Determination of EC50 of polypeptides against human ETB receptor (IP-One Gq kit); type: cell-based; conditions: 293T-17 cells transfected with PCDNA3.1-hETB; read-out: hETBR agonist activity EC50/nM
T1 construct: expressed in transfected cells; host or cells: 293T-17 cells, transient transfection
T1 sequence (P24530 27-442): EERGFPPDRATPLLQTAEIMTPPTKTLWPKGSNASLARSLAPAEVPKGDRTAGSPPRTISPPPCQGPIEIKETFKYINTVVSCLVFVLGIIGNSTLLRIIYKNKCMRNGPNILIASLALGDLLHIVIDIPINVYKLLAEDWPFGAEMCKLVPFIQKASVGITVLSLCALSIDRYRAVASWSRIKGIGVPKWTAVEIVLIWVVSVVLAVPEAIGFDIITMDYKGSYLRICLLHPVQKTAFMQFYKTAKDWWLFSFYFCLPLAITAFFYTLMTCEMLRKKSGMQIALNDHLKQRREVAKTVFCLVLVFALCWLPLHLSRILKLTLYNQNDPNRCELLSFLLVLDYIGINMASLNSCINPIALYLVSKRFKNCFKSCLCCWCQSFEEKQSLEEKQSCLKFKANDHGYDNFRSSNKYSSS
Method: 293T-17 cells were seeded at a density of 650,000 cells per well in a 6-well plate and cultured overnight in an incubator at 37°C and 5% CO2. Afterward, the cells were transfected with an expression vector, PCDNA3.1-hETB which contained a human ETB receptor gene, at a plasmid concentration of 2.5 µg per well. The cells were further cultured for 48 hours, and green fluorescence expression was observed under a fluorescence microscope. The cells were then digested with trypsin and counted. The activity of compounds on the human ETB receptor was determined with the IP-One Gq kit from Cisbio Bioassays. The cells were suspended in Stim Buffer provided in the kit and the cell suspension was added to a 96-well detection plate at 7 µL cell suspension (containing 30,000 cells) per well. The polypeptides to be tested (prepared according to the Preparation Example of the invention) were diluted in Stim B to obtain a gradient of 11 concentration points. For each concentration point, the polypeptides to be tested were dissolved in Stim B to be at a concentration of 2×, and added at 7 µL to the test cells, while 7 µL of PBS solution was added to the cells in the negative control wells. The plate was sealed and incubated at 37°C for 1 hour in a cell culture incubator. Detection wells, positive control wells containing human endothelin ET1 (ET1: […] (C1-C15,C3-C11)), and PBS control wells were each added with 3 µL of IP1 d2 working solution and 3 µL of IP1 Tb cryptotate Antibody working solution. The plate was then sealed and incubated in the dark at room temperature (25°C±5°C) for 1 hour. The plate seal was removed, and the […] at 665 nm and 620 nm was measured with an ID5 microplate reader. The ratio of the acceptor emission signal to the donor emission signal, i.e., (signal at 665 nm/signal at 620 nm)×10^4, was calculated for each well. With F representing the average value of values of signal at 665 nm/signal at 620 nm for the test samples at various concentrations, a scatterplot was plotted, where the abscissa represented the F value, and the ordinate represented the logarithmic value of the peptide concentration. A curve was fitted with an appropriate method to calculate EC50 values of the polypeptides against the human ETB receptor. Another method was provided for fitting a curve where activation rate of the test polypeptides at each concentration relative to the positive control sample human endothelin ET1 was calculated first with the method in Example 1, and a scatterplot was plotted, where the abscissa represented the activation rate, and the ordinate represented the logarithmic value of the polypeptide concentration. A curve was fitted with an appropriate method to calculate the EC50 values of the polypeptides against the human ETB receptor.

[1] = Determination of half-lives of polypeptides (plasma, LC-MS); conditions: C57 BL/6, mouse, plasma, iv
mouse model of tMCAO = experiment: Garcia JH scoring in mouse model of tMCAO; type: in vivo, C57/6J mice
Method: Fifty-one male C57/6J mice, aged 10-12 weeks, weighing 25-30g, were housed for at least 2 days prior to the experiment to adapt to the environment (SPF Biotech). A mouse model of tMCAO was established. The mice were anesthetized with isoflurane. Their body temperature was controlled by a thermostatic blanket and monitored and maintained at 37±0.5°C. A middle incision was made in the skin on the mouse skull, the skin was pulled outward, and a bendable microneedle tip was fixed to the surface of the left parietal bone of the mouse skull. A middle incision on the neck was made to separate the right common carotid artery (CCA), external carotid artery (ECA) and internal carotid artery (ICA). According to the method of Longa (Longa et al., 1989), a silicone rubber-coated suture (RWD Life Science, suture end diameter: 0.22 mm-0.23 mm, MSMC23B120PK50) was introduced through an external carotid artery incision surgery and was slowly advanced through the internal carotid artery towards the origin of the middle cerebral artery. To ensure a sustained and successful occlusion of the middle cerebral artery, we monitored local cerebral blood flow of all stroke animals with a laser speckle flowmeter (generally, the blood flow can be reduced by 40-60% after stabilized). The suture was removed 45 min after the insertion for modeling, and the incision was sutured. Afterward, 1 mL of 37°C warm saline was injected subcutaneously, and the mice were placed on a heating pad until recovery. To alleviate pain, the mice were injected subcutaneously with Tilidine after awakening from anesthesia.
Successfully modeled C57 tMCAO mice were randomly assigned into three groups: a normal saline group, a 30µg/Kg BX229-Na administration group, and a 100µg/Kg BX229-Na administration group. Each group was administered once subcutaneously in the neck 4.5 hours after occlusion (D1), and was administered once more at the same sites and at the same time points on D3 and D6. A sham group included 6 animals. 2 mL/kg was administrated subcutaneously in the neck. Garcia JH scoring was made on D7 and D14 after administration. After the completion of the scoring on D14, the mice were euthanized and harvested for infarcted brain tissues, to extract total proteins. Changes in protein markers VEGF-A and BDNF in each experimental group were detected by ELISA. Table 19: Experimental Grouping and Dosing Regimen

male SD rats [2] = conditions: male SD rats, subcutaneous, observed for 48 hours
Method: In an experiment about acute toxicity of subcutaneous administration, male SD rats weighing 200-230 g were dosed in a range between 60 µg/Kg and 960 µg/Kg. Observation was made for 48 hours after subcutaneous administration. Toxic response and mortality of the rats were preliminarily observed, and time of death and doses without mortality were recorded. The level of acute toxicity of the polypeptides was preliminarily determined based on the doses without mortality.

in vivo = conditions: male, SD, rat, in vivo, iv
Method: (§1) In an experiment about acute toxicity of intravenous administration, male SD rats weighing 200-230 g were dosed in a range between 480 µg/Kg and 30 µg/Kg via tail vein injection in a descending order of dosage. […] Toxic response and mortality of the rats were preliminarily observed, and time of death and doses without mortality of the rats were recorded. The level of acute toxicity of the polypeptides was preliminarily determined based on the doses without mortality.

male SD rats [3] = experiment: in vivo; conditions: one animal per row, observed 24 hours
Method: as §1

SD rats = conditions: rat, in vivo
Method: Male SD rats were anesthetized with isoflurane, and their neck hairs were shaved. A midline incision was made on the neck to expose the trachea. A ventilator and anesthesia machine for small animals were turned on, with concentration of an anesthetic gas set to 1.2, and its exit channel connected to an inlet of the ventilator. Tidal volume of the ventilator was set to 2 mL, the respiratory rate was 90 breaths/minute, and the respiratory ratio was 1:2. An outlet end of the ventilator was connected to a plastic hose, which was inserted into the rat's airway.
A machine and a software of a biological signal data acquisition and analysis system were turned on. One end of a data acquisition plate was connected to the plastic hose, and the other end was connected to a collector valve connected with a 1-mL syringe. The syringe was filled with heparinized saline, which was injected into the data acquisition plate to expel the air in the entire space until the heparinized saline flowed out from the other end of the plastic hose. The right common carotid arteries of the rats were isolated. A dead knot was made at the distal end and a slipknot at the proximal end of a right common carotid artery. A 1/2-sized incision was made in the artery between the knot with a microscissor, and the plastic hose with heparinized saline was inserted into the incision and fixed to prevent back-and-forth movement. The initial value of the blood pressure was set to zero with the zero-adjustment valve of the biological signal data acquisition and analysis system. The slipknot at the proximal end of the common carotid artery was untied, and real-time blood pressure data of the animal appeared on the software. […] The dosages of IRL1620, BX34, and BX229 were 5 µg/Kg, 42 µg/kg, and 6.6 µg/Kg, respectively.

[4] = 30µg/Kg subcutaneously on D1, D3, D6
[5] = tMCAO mice, 30µg/Kg s.c. on D1, D3, D6

## CCCCCCCCCCCC(=O)N[C@@H](CCC(=O)NCCOCCOCC(=O)NCCCC[C@H](NC(=O)[C@H](Cc1c[nH]cn1)NC(=O)[C@H](C)NC(=O)[C@H](Cc1ccccc1)NC(=O)[C@H](Cc1ccc(O)cc1)NC(=O)[C@@H](NC(=O)[C@H](C)NC(=O)[C@H](CCC(=O)O)NC(=O)[C@H](CCC(=O)O)NC(=O)[C@H](CC(=O)O)NC(=O)/C=C/C(=O)O)C(C)C)C(=O)N[C@@H](CC(=O)O)C(=O)N[C@H](C(=O)N[C@H](C(=O)N[C@@H](Cc1c[nH]c2ccccc12)C(=O)O)[C@@H](C)CC)[C@@H](C)CC)C(=O)O [BX-225-Na] (Fumaroyl-DEEAVYFAHK([AEEA-γGlu-Lauroyl])DIIW-OH)
Human ETB receptor
  EC50: 134 nM

## CC[C@H](C)[C@H](NC(=O)[C@H](CC(=O)O)NC(=O)[C@@H]1CCCCNC(=O)CC[C@H](NC(=O)[C@H](CCC(=O)O)NC(=O)[C@H](CCC(=O)O)NC(=O)[C@H](CC(=O)O)NC(=O)/C=C/C(=O)O)C(=O)N[C@@H](C(C)C)C(=O)N[C@@H](Cc2ccc(O)cc2)C(=O)N[C@@H](Cc2ccccc2)C(=O)N[C@@H](CCCCN)C(=O)N[C@@H](Cc2c[nH]cn2)C(=O)N1)C(=O)N[C@H](C(=O)N[C@@H](Cc1c[nH]c2ccccc12)C(=O)O)[C@@H](C)CC [QP-3] (Fumaroyl-DEEEVYFKHKDIIW-OH; lactam 4-10)
Human ETB receptor
  EC50: 3.85 nM

## CCCCCCCCCCCC(=O)N[C@@H](CCC(=O)NCCOCCOCC(=O)NCCCC[C@H](NC(=O)[C@H](Cc1c[nH]cn1)NC(=O)[C@H](C)NC(=O)[C@H](Cc1ccccc1)NC(=O)[C@H](Cc1ccc(O)cc1)NC(=O)[C@@H](NC(=O)[C@H](C)NC(=O)[C@H](CCC(=O)O)NC(=O)[C@H](CCC(=O)O)NC(=O)[C@H](CC(=O)O)NC(=O)/C=C/C(=O)O)C(C)C)C(=O)N[C@@H](CC(=O)O)C(=O)N[C@H](C(=O)N[C@H](C(=O)N[C@@H](Cc1c[nH]c2ccccc12)C(=O)O)[C@@H](C)CC)C(C)C)C(=O)O [BX-229] (Fumaroyl-DEEAVYFAHK([AEEA-γGlu-Lauroyl])DVIW-OH)
[1]
  half-life: 1.28 h
Mouse model of tMCAO; [4]
  Garcia JH-15 score on D7 compared with the normal saline group: better scores than the normal saline group
  Garcia JH-15 score on D14 compared with the normal saline group: better scores than that of the normal saline group
Mouse model of tMCAO; 100µg/Kg subcutaneously on D1, D3, D6
  Garcia JH-15 score on D7 compared with the normal saline group: better scores than the normal saline group
Mouse model of tMCAO; [5]
  Garcia JH-15 score on D7 compared with the normal saline group: better scores
  Garcia JH-15 score on D14 compared with the normal saline group: better scores
Mouse model of tMCAO; tMCAO mice, 100µg/Kg s.c. on D1, D3, D6
  Garcia JH-15 score on D7 compared with the normal saline group: better scores
Mouse model of tMCAO; tMCAO mice, 100µg/Kg s.c. on D1, D3, D6, P < 0.05
  Garcia JH-15 score on D14 compared with the normal saline group: significantly different
Mouse model of tMCAO; tMCAO mice, D7, 100µg/Kg s.c. on D1, D3, D6
  total score of the Garcia JH-15 score, higher than in the normal saline group by: 1 point
Male SD rats [2]
  acute toxicity of subcutaneous administration compared with IRL1620: much lower
In vivo
  MTD at 24 h: 0.06 mg/kg
Male SD rats [3]; intravenous (tail vein) 60 µg/Kg
  Observations of Animal Status: No obvious reaction within 1 hour; developed rapid breathing at 1 hour; recovered to normal after 10 minutes
Male SD rats [3]; intravenous (tail vein) 90 µg/Kg
  Observations of Animal Status: Died at 1 hour after administration; also recorded: Developed rapid breathing at 25 minutes after administration; recovered after 25 minutes; showed no willingness to move; also recorded: Developed rapid breathing and the body turned purple at 1 hour after administration; partially recovered after 30 minutes; also recorded: Developed rapid breathing and diarrhea at 45 minutes after administration; recovered after 25 minutes; also recorded: Developed rapid breathing at 44 minutes after administration; died of convulsions at 52 minutes after administration; also recorded: Developed rapid breathing at 43 minutes after administration; recovered after 30 minutes
Male SD rats [3]; intravenous (tail vein) 120 µg/Kg
  Observations of Animal Status: Died at 26 minutes after administration; had white discharge in the nasal cavity and developed diarrhea
SD rats
  maximum extent of decrease in blood pressure, of the baseline blood pressure: 17.0%±2.0%
  time to the lowest blood pressure: 20 to 35 min
SD rats; iv
  Maximum percentage of blood pressure reduction relative to baseline blood pressure (n = 3): 17.0%±2.0%
  Time from baseline blood pressure to the lowest blood pressure: 20 to 30 min
